Laboratory results: ChEMBL document CHEMBL4627352, “New acrylamide-sulfisoxazole conjugates as dihydropteroate synthase inhibitors” (Bioorg Med Chem, 2020)
In brackets after ≈: the same amount, converted by molar mass. Activity calls are given as the source filed them. No cut-off for these calls is given here.

Experiments:
Streptococcus pneumoniae [1] = test: Inhibition of DHPS in Streptococcus pneumoniae assessed as antibacterial activity by measuring inhibition zone at 5 mg/mL incubated for 24 hrs by disk diffusion method
Bacillus subtilis [2] = test: Inhibition of DHPS in Bacillus subtilis assessed as antibacterial activity by measuring inhibition zone at 5 mg/mL incubated for 24 hrs by disk diffusion method
[3] = tested on: Staphylococcus epidermidis; test: Inhibition of DHPS in Staphylococcus epidermidis assessed as antibacterial activity by measuring inhibition zone at 5 mg/mL incubated for 24 hrs by disk diffusion method
Escherichia coli [4] = test: Inhibition of DHPS in Escherichia coli assessed as antibacterial activity by measuring inhibition zone at 5 mg/mL incubated for 24 hrs by disk diffusion method
Proteus vulgaris [5] = test: Inhibition of DHPS in Proteus vulgaris assessed as antibacterial activity by measuring inhibition zone at 5 mg/mL incubated for 24 hrs by disk diffusion method
Klebsiella pneumoniae [6] = test: Inhibition of DHPS in Klebsiella pneumoniae assessed as antibacterial activity by measuring inhibition zone at 5 mg/mL incubated for 24 hrs by disk diffusion method
Streptococcus pneumoniae [7] = test: Inhibition of DHPS in Streptococcus pneumoniae assessed as antibacterial activity by measuring inhibition of bacterial growth incubated for 24 hrs by microbroth dilution method
Bacillus subtilis [8] = test: Inhibition of DHPS in Bacillus subtilis assessed as antibacterial activity by measuring inhibition of bacterial growth incubated for 24 hrs by microbroth dilution method
[9] = tested on: Staphylococcus epidermidis; test: Inhibition of DHPS in Staphylococcus epidermidis assessed as antibacterial activity by measuring inhibition of bacterial growth incubated for 24 hrs by microbroth dilution method
Escherichia coli [10] = test: Inhibition of DHPS in Escherichia coli assessed as antibacterial activity by measuring inhibition of bacterial growth incubated for 24 hrs by microbroth dilution method
Proteus vulgaris [11] = test: Inhibition of DHPS in Proteus vulgaris assessed as antibacterial activity by measuring inhibition of bacterial growth incubated for 24 hrs by microbroth dilution method
Klebsiella pneumoniae [12] = test: Inhibition of DHPS in Klebsiella pneumoniae assessed as antibacterial activity by measuring inhibition of bacterial growth incubated for 24 hrs by microbroth dilution method
Aspergillus fumigatus [13] = test: Inhibition of DHPS in Aspergillus fumigatus assessed as antifungal activity by measuring inhibition zone at 5 mg/mL incubated for 48 hrs by disk diffusion method
[14] = tested on: Syncephalastrum racemosum; test: Inhibition of DHPS in Syncephalastrum racemosum assessed as antifungal activity by measuring inhibition zone at 5 mg/mL incubated for 48 hrs by disk diffusion method
Geotrichum candidum [15] = test: Inhibition of DHPS in Geotrichum candidum assessed as antifungal activity by measuring inhibition zone at 5 mg/mL incubated for 48 hrs by disk diffusion method
Aspergillus fumigatus [16] = test: Inhibition of DHPS in Aspergillus fumigatus assessed as antifungal activity by measuring inhibition of fungal growth incubated for 48 hrs by microbroth dilution method
[17] = tested on: Syncephalastrum racemosum; test: Inhibition of DHPS in Syncephalastrum racemosum assessed as antifungal activity by measuring inhibition of fungal growth incubated for 48 hrs by microbroth dilution method
Geotrichum candidum [18] = test: Inhibition of DHPS in Geotrichum candidum assessed as antifungal activity by measuring inhibition of fungal growth incubated for 48 hrs by microbroth dilution method
[19] = tested on: Escherichia coli ATCC 25922; test: Inhibition of DHPS in Escherichia coli ATCC 25922 assessed as inhibition of bacterial growth incubated for 24 hrs in presence of folate precursor, pABA by microbroth dilution method
[20] = tested on: Escherichia coli ATCC 25922; test: Inhibition of DHPS in Escherichia coli ATCC 25922 assessed as inhibition of bacterial growth incubated for 24 hrs in presence of folate dependent metabolite, methionine by microbroth dilution method
[21] = tested on: Syncephalastrum racemosum; test: Potency index, ratio of amphotericin B MIC to compound MIC for Syncephalastrum racemosum assessed as inhibition of DHPS-mediated fungal growth incubated for 48 hrs by microbroth dilution method
Aspergillus fumigatus [22] = test: Potency index, ratio of sulfisoxazole MIC to compound MIC for Aspergillus fumigatus assessed as inhibition of DHPS-mediated fungal growth incubated for 48 hrs by microbroth dilution method
[23] = tested on: Staphylococcus epidermidis; test: Potency index, ratio of sulfisoxazole MIC to compound MIC for Staphylococcus epidermidis assessed as inhibition of DHPS-mediated bacterial growth incubated for 24 hrs by microbroth dilution method
Klebsiella pneumoniae [24] = test: Potency index, ratio of sulfisoxazole MIC to compound MIC for Klebsiella pneumoniae assessed as inhibition of DHPS-mediated bacterial growth incubated for 24 hrs by microbroth dilution method
Bacillus subtilis [25] = test: Potency index, ratio of sulfisoxazole MIC to compound MIC for Bacillus subtilis assessed as inhibition of DHPS-mediated bacterial growth incubated for 24 hrs by microbroth dilution method
Geotrichum candidum [26] = test: Potency index, ratio of sulfisoxazole MIC to compound MIC for Geotrichum candidum assessed as inhibition of DHPS-mediated fungal growth incubated for 48 hrs by microbroth dilution method
Escherichia coli [27] = test: Potency index, ratio of sulfisoxazole MIC to compound MIC for Escherichia coli assessed as inhibition of DHPS-mediated bacterial growth incubated for 24 hrs by microbroth dilution method
Streptococcus pneumoniae [28] = test: Potency index, ratio of sulfisoxazole MIC to compound MIC for Streptococcus pneumoniae assessed as inhibition of DHPS-mediated bacterial growth incubated for 24 hrs by microbroth dilution method
hTERT-BJ = test: Cytotoxicity against human hTERT-BJ1 cells at 50 uM by acid phosphatase assay relative to control; assay type: cell-based
Bacillus subtilis [29] = test: Potency index, ratio of ampicillin MIC to compound MIC for Bacillus subtilis assessed as inhibition of DHPS-mediated bacterial growth incubated for 24 hrs by microbroth dilution method
Escherichia coli [30] = test: Potency index, ratio of gentamycin MIC to compound MIC for Escherichia coli assessed as inhibition of DHPS-mediated bacterial growth incubated for 24 hrs by microbroth dilution method

SMILES | inhibition zone (IZ) (Streptococcus pneumoniae [1]) | inhibition zone (IZ) (Bacillus subtilis [2]) | inhibition zone (IZ) [3] | inhibition zone (IZ) (Escherichia coli [4]) | inhibition zone (IZ) (Proteus vulgaris [5]) | inhibition zone (IZ) (Klebsiella pneumoniae [6]) | MIC (Streptococcus pneumoniae [7]) | MIC (Bacillus subtilis [8]) | MIC [9] | MIC (Escherichia coli [10]) | MIC (Proteus vulgaris [11]) | MIC (Klebsiella pneumoniae [12]) | inhibition zone (IZ) (Aspergillus fumigatus [13]) | inhibition zone (IZ) [14] | inhibition zone (IZ) (Geotrichum candidum [15]) | MIC (Aspergillus fumigatus [16]) | MIC [17] | MIC (Geotrichum candidum [18]) | inhibition [19] | inhibition [20] | further results
C=CCN/C(S)=C(/C#N)C(=O)Nc1ccc(S(=O)(=O)Nc2onc(C)c2C)cc1 | 21.7 mm | 23.8 mm | 20.1 mm | 21.2 mm | 20.1 mm | 24.2 mm | 0.98 mg/L (≈ 2.26 µM) | 0.49 mg/L (≈ 1.13 µM) | 3.9 mg/L (≈ 9 µM) | 1.95 mg/L (≈ 4.5 µM) | 3.9 mg/L (≈ 9 µM) | 0.49 mg/L (≈ 1.13 µM) | 22.3 mm | 20.4 mm | 25.2 mm | 0.49 mg/L (≈ 1.13 µM) | 3.9 mg/L (≈ 9 µM) | 0.24 mg/L (≈ 0.554 µM) | inactive | inactive | Ratio [21]: 2; Ratio (Aspergillus fumigatus [22]): 7; Ratio [23]: 2; Ratio (Klebsiella pneumoniae [24]): 4; Ratio (Bacillus subtilis [25]): 2; Ratio (Geotrichum candidum [26]): 6
CN/C(S[C@@H]1O[C@H](COC(C)=O)[C@@H](OC(C)=O)[C@H](OC(C)=O)[C@H]1OC(C)=O)=C(/C#N)C(=O)Nc1ccc(S(=O)(=O)Nc2onc(C)c2C)cc1 | 22.2 mm | 23.4 mm | 20.4 mm | 20.2 mm | 17.8 mm | 22.1 mm | 0.98 mg/L (≈ 1.33 µM) | 0.98 mg/L (≈ 1.33 µM) | 3.9 mg/L (≈ 5.29 µM) | 3.9 mg/L (≈ 5.29 µM) | 7.81 mg/L (≈ 10.6 µM) | 0.98 mg/L (≈ 1.33 µM) | 19.3 mm | 19.9 mm | 21.2 mm | 3.9 mg/L (≈ 5.29 µM) | 3.9 mg/L (≈ 5.29 µM) | 1.95 mg/L (≈ 2.64 µM) | inactive | inactive | Ratio [21]: 1; Ratio (Aspergillus fumigatus [22]): 4 to 6; Ratio [23]: 2; Ratio (Klebsiella pneumoniae [24]): 8; Ratio (Escherichia coli [27]): 4; Ratio (Streptococcus pneumoniae [28]): 2; Ratio (Geotrichum candidum [26]): 3 to 5
CCN/C(SCC)=C(/C#N)C(=O)Nc1ccc(S(=O)(=O)Nc2onc(C)c2C)cc1 | 24.3 mm | 26.3 mm | 22.8 mm | 20.6 mm | 19.6 mm | 23.2 mm | 0.12 mg/L (≈ 0.267 µM) | 0.12 mg/L (≈ 0.267 µM) | 0.49 mg/L (≈ 1.09 µM) | 1.95 mg/L (≈ 4.34 µM) | 3.9 mg/L (≈ 8.68 µM) | 0.49 mg/L (≈ 1.09 µM) | 21.6 mm | 20.3 mm | 20.4 mm | 0.98 mg/L (≈ 2.18 µM) | 3.9 mg/L (≈ 8.68 µM) | 3.9 mg/L (≈ 8.68 µM) | inactive | inactive | Activity (hTERT-BJ): 8.5%; Ratio [21]: 2; Ratio (Bacillus subtilis [29]): 2
C=CCN/C(SCC)=C(/C#N)C(=O)Nc1ccc(S(=O)(=O)Nc2onc(C)c2C)cc1 | 24.9 mm | 26.8 mm | 24.2 mm | 21.8 mm | 20.7 mm | 24.7 mm | 0.12 mg/L (≈ 0.26 µM) | 0.12 mg/L (≈ 0.26 µM) | 0.25 mg/L (≈ 0.542 µM) | 0.98 mg/L (≈ 2.12 µM) | 3.9 mg/L (≈ 8.45 µM) | 0.25 mg/L (≈ 0.542 µM) | 22.9 mm | 22.4 mm | 22.1 mm | 0.49 mg/L (≈ 1.06 µM) | 0.98 mg/L (≈ 2.12 µM) | 1.95 mg/L (≈ 4.22 µM) | inactive | inactive | Ratio [21]: 3; Ratio (Bacillus subtilis [29]): 2; Ratio (Escherichia coli [30]): 2
